# What was measured:
# [1] = tested on: LN229 MGMT+/−, MMR+/− isogenic lines; experiment: Short-term cell viability with ROS scavenger NAC; type: cell-based, human; conditions: increasing concentrations of NAC
# Protocol: Columns, mean; error bars, SD; n=2 independent analyses. For (A) and (C), points, mean; error bars, SD; n=3 technical replicates.
# (§1) Short-term Cell Viability Assay. Cells were seeded in 96-well plates at 1000 or 2000 cells/well and allowed to adhere at 23° C. for 60 min and then incubated overnight at 37° C. Cells were treated with indicated concentrations of compounds in triplicate for 4-6 days prior to fixation with 3.7% paraformaldehyde and nuclear staining with 1 μg/mL Hoechst 33342 dye. Cells were imaged on a Cytation 3 imaging reader (BioTek) and quantified using CellProfiler software. For in vitro short-term growth delay experiments, IC50 values were determined from the nonlinear regression equation, [inhibitor] vs normalized response with variable slope.
# [2] = Maximum tolerated dose study in healthy mice; type: in vivo
# Description: FIGS. 10A-10G. KL-50 is efficacious in an LN229 MGMT−/MMR− intracranial model and is well tolerated with limited myelosuppression at supratherapeutic doses. […] (FIG. 10B) Mean body change with SEM of mice during maximum tolerated dose experiment in non-tumor bearing mice. (FIGS. 10C-10G) Complete blood counts for mice pre-treatment and 7 days post-treatment with escalations of single dose KL-50 delivered PO. WBC lower limit of normal (LLN): 2.2 K/L; Neutrophils LLN: 0.42 K/L; Lymphocyte LLN: 1.7 K/L; RBC LLN: 3.47 M/L; Platelet LLN: 155 K/L. *, P<0.05; ****, P<0.0001.
# Healthy mice were treated with escalating doses of KL-50 (0, 25, 50, 100, and 200 mg/kg x 1 dose), and monitored over time for changes in both weights and hematologic profiles. […]. […]
# [3] = tested on: PD20 cells, deficient in FANCD2 (FANCD2−/−) or complemented with FANCD2; experiment: Short-term viability assay, PD20 cells; type: cell-based, human; conditions: PD20 FANCD2−/− vs +FANCD2
# Protocol: FIGS. 8A-8K. (FIG. 8A) Change in percent cells with 1 micronuclei from baseline (DMSO control) after treatment as in FIGS. 5A and 5C. […] (FIG. 8B) Short-term viability assay curves for KL-50 in PD20 cells, deficient in FANCD2 (FANCD2−/−) or complemented with FANCD2 (+FANCD2). (FIG. 8C) Short-term viability assay curves for KL-50 in PEO4 (BRCA2+) and PEO1 (BRCA2−/−) cells pre-treated with 0.01% DMSO control or 10 μM O^6BG (+O^6BG) for 1 h prior to KL-50 addition. (FIG. 8D) Short-term viability assay curves for KL-50 in DLD1 BRCA2+/− and BRCA2−/−cells pre-treated with 0.01% DMSO control or 10 μM O^6BG (+O^6BG) for 1 h prior to KL-50 addition. For FIGS. 8B-8D, points, mean; error bars, SD; n=3 technical replicates. […] Change in percent cells with 1 micronuclei from baseline (DMSO control) after treatment with olaparib (10 μM) for 48 h in LN229 MGMT+/−, MMR+/−cells. […] Western blot analysis of FANCD2 ubiquitination in LN229 MGMT+/−, MMR+/−cells and PD20 FANCD2-deficient cells, complemented with empty vector (FANCD2+EV), wildtype FANCD2 (PD20+FD2) or ubiquitination-mutant FANCD2 (PD20+KR). The % FANCD2 ubiquitination (% FANCD2 Ub) is quantified as the background-corrected integrated band intensity of the upper band divided by the sum of the background-corrected integrated band intensities of the upper and lower bands. The fold change in % FANCD2 ubiquitination is presented for each cell line relative to DMSO-treated cells. Vinculin serves as loading control. For 8J-8K, points, mean; error bars, SD; n=3 technical replicates.
# as §1, with “Cells were treated with indicated concentrations of compounds in triplicate for 4-6 days prior to fixation with 3.7% paraformaldehyde and nuclear staining with 1 μg/mL Hoechst 33342 dye.” left out
# [4] = tested on: BJ fibroblast cells (normal cells); experiment: Short-term cell viability, normal fibroblasts; type: cell-based, human; conditions: compared with TMZ
# Protocol: FIG. 1B: Short-term viability assay curves for KL-50 in DLD1 MSH6-deficient cells pre-treated with 0.01% DMSO control (CTR) or 10 μM O^6BG (+O^6BG) for 1 h prior to KL-50 addition. […] Short-term viability assay curves for (FIG. 1E) KL-50 in HCT116 MLH1−/−cells or (FIG. 1F) HCT116 cells complemented with chromosome 3 carrying wildtype MLH1 (+Chr3) pre-treated with 0.01% DMSO control or 10 μM O^6BG (+O^6BG) for 1 h prior to KL-50 addition. […] For these figures, points, mean; error bars, SD; n>3 technical replicates.
# as §1
structure (smiles),measurement,setting,value
NC(=O)c1ncn2c(=O)n(CCF)nnc12 [KL-50],rescue of toxicity by ROS scavenger NAC,[1],did not result in rescue of KL-50 toxicity
same,mice observably ill warranting euthanasia,[2]; 200 mg/kg x 1 dose,Two of three mice
same,toxicity in remaining cohorts,"[2]; 25, 50, 100 mg/kg x 1 dose",no evidence of toxicity
same,complete blood counts day 7,"[2]; all cohorts, 0-200 mg/kg single dose PO",within normal physiological ranges
same,"tolerability, overall",[2]; escalating single doses,well-tolerated
same,weight loss after treatment administration,"[2]; single dose 100 or 200 mg/kg, regressed to baseline at the end of one week",greater than 10%
same,sensitivity of FANCD2-deficient cells,[3],hypersensitive
same,cytotoxicity in normal human fibroblast cells,[4],No increase in toxicity

# From US20240294478A1, “ANTI-CANCER COMPOUNDS AND METHODS OF USE” (YALE UNIVERSITY, priority 2021, published 2024)
